# Results reported in the supplement of paper PMC11208160.
# Test: recombinant barcode read abundance after kanamycin selection (control-corrected) (log10(CPM+1)); higher = more efficient recombination; sequences stand for … in AGTGCAGAGAAAATCGGCCAGTTTTCTCTGCCTGCAGTCCGCATGCCGT…AGATTTATGCAGCGGACTGCCTTTCTCCCAAAGTGATAAACCGGACAGTATCATGGACCGGTTTTCCCGGTAATCCGTATTTGCAAGGTTGGTTTCACT; site = the 11-nt target
# In short: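 In a pooled screen in E. coli, targets were paired with target-binding loops of the IS621 bridge RNA. Each oligo carried a promoter, a target, a barcode and the first 104 bridge RNA bases driven by J23119, and was Gibson-cloned into a vector holding the remaining 73 bp and a T7-inducible recombinase before co-electroporation with a donor plasmid. Duplicate platings went onto chloramphenicol/ampicillin LB agar as the control or onto chloramphenicol/ampicillin/kanamycin with 0.1 mM IPTG. Recombination efficiency is the averaged, control-corrected count per million of barcodes at recombinant junctions, given as log10(CPM+1).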
# 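Also: IS621 recombinase and bridge RNA in Escherichia coli cells.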
row,Sequence,recombinant barcode read abundance (log10)
1,TACACAGCTTGGGTTCTAACCTGTTGCCT (site TAAACAGCTAG),0.176
2,TACACAGCTTGGGTTCTAACCTGTTGCCT (site TACACAGCTAG),0.909
3,TACACAGCTTGGGTTCTAACCTGTTGCCT (site TAGACAGCTAG),0.249
4,TACACAGCTTGGGTTCTAACCTGTTGCCT (site TATACAGCTAG),0.149
5,TACACTACTTGGGTTCTAACCTGTTGCCG (site TACACGACTCC),0.0364
6,TACACTACTTGGGTTCTAACCTGTTGCCG (site TACACTACTCG),0.177
7,TACATCCCTTGGGTTCTAACCTGTTGCCA (site TACATCCCTAG),0.5
8,TACATCCCTTGGGTTCTAACCTGTTGCCA (site TACATCCCTCG),0.0234
9,TACATCCCTTGGGTTCTAACCTGTTGCCA (site TACATCCCTGG),0.0594
10,TACATCCCTTGGGTTCTAACCTGTTGCCA (site TACATCCCTTG),0.358
11,TACATTCCTTGGGTTCTAACCTGTTGCCT (site AACATTCCTAG),0.0286
12,TACATTCCTTGGGTTCTAACCTGTTGCCT (site CACATTCCTAG),0.0666
13,TACATTCCTTGGGTTCTAACCTGTTGCCT (site GACATTCCTAG),0.179
14,TACATTCCTTGGGTTCTAACCTGTTGCCT (site TACATTCCTAG),0.156
15,TACCCTACTTGGGTTCTAACCTGTTGCCT (site AACCCTACTAG),0.0271
16,TACCCTACTTGGGTTCTAACCTGTTGCCT (site CACCCTACTAG),0.0188
17,TACCCTACTTGGGTTCTAACCTGTTGCCT (site GACCCTACTAG),0.0371
18,TACCCTACTTGGGTTCTAACCTGTTGCCT (site TACCCTACTAG),0.628
19,TACCGGCCTTGGGTTCTAACCTGTTGCCT (site TAACGGCCTAG),0.288
20,TACCGGCCTTGGGTTCTAACCTGTTGCCT (site TACCGGCCTAG),0.141
21,TACCGGCCTTGGGTTCTAACCTGTTGCCT (site TAGCGGCCTAG),0.176
22,TACCGGCCTTGGGTTCTAACCTGTTGCCT (site TATCGGCCTAG),0.166

row,Sequence,recombinant barcode read abundance (log10)
1,TACCTAGCTTGGGTTCTAACCTGTTGCGT (site TACCTAGCTAC),1.3
2,TACCTAGCTTGGGTTCTAACCTGTTGCGT (site TACCTATCTAC),0.433
3,TACCTATCTTGGGTTCTAACCTGTTGCCT (site TACCTATCTAG),1.11
4,TACCTATCTTGGGTTCTAACCTGTTGCCT (site TCCCTATCTAG),0.00692
5,TACCTATCTTGGGTTCTAACCTGTTGCCT (site TGCCTATCTAG),0.0136
6,TACCTATCTTGGGTTCTAACCTGTTGCCT (site TTCCTATCTAG),0.429
7,TACCTGACTTGGGTTCTAACCTGTTGCCT (site TACCAGACTAG),0.0067
8,TACCTGACTTGGGTTCTAACCTGTTGCCT (site TACCCGACTAG),0.355
9,TACCTGACTTGGGTTCTAACCTGTTGCCT (site TACCGGACTAG),0.106
10,TACCTGACTTGGGTTCTAACCTGTTGCCT (site TACCTGACTAG),0.688
11,TACGCCTCTTGGGTTCTAACCTGTTGCCT (site AACGCCTCTAG),0.0117
12,TACGCCTCTTGGGTTCTAACCTGTTGCCT (site CACGCCTCTAG),0.164
13,TACGCCTCTTGGGTTCTAACCTGTTGCCT (site GACGCCTCTAG),0.249
14,TACGCCTCTTGGGTTCTAACCTGTTGCCT (site TACGCCTCTAG),1.29
15,TACGTGTCTTGGGTTCTAACCTGTTGCCT (site TAAGTGTCTAG),0.408
16,TACGTGTCTTGGGTTCTAACCTGTTGCCT (site TACGTGTCTAG),2.4
17,TACGTGTCTTGGGTTCTAACCTGTTGCCT (site TAGGTGTCTAG),0.0617
18,TACGTGTCTTGGGTTCTAACCTGTTGCCT (site TATGTGTCTAG),0.103
19,TACTAAGCTTGGGTTCTAACCTGTTGCCT (site TACTAAGCTAA),0
20,TACTAAGCTTGGGTTCTAACCTGTTGCCT (site TACTAAGCTAC),0.098
21,TACTAAGCTTGGGTTCTAACCTGTTGCCT (site TACTAAGCTAG),0.495
